Where two headings read alike, the source gives them in different places.
What was measured:
[1] = rcm bond, 1,1,2-trichloroethane
calpain II (m calpain) = target: T1, calpain II (m calpain) (Homo sapiens, UniProt P17655); assay: BODIPY-casein fluorescence-based enzyme assay, calpain II / m-calpain; format: biochemical; details: BODIPY-casein substrate
T1 sequence (P17655 1-700): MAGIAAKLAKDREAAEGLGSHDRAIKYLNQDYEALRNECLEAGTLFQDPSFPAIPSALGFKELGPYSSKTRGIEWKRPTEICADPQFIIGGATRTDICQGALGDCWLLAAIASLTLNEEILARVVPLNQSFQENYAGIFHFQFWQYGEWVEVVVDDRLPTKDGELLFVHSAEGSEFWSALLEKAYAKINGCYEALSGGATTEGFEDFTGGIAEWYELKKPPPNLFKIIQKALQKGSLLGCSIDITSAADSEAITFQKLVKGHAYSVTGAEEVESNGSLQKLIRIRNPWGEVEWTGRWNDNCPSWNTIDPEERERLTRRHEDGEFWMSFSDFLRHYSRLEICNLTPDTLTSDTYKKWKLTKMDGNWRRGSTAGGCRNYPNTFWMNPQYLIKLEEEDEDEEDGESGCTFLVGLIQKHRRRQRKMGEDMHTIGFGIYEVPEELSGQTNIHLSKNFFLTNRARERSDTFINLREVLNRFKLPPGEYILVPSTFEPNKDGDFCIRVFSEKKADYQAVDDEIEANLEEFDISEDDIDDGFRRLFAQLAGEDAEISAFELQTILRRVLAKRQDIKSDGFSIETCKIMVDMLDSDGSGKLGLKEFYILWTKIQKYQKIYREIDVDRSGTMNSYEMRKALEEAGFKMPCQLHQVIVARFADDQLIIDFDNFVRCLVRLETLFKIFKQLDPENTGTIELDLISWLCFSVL
T1 sequence (P04632 1-268 partner): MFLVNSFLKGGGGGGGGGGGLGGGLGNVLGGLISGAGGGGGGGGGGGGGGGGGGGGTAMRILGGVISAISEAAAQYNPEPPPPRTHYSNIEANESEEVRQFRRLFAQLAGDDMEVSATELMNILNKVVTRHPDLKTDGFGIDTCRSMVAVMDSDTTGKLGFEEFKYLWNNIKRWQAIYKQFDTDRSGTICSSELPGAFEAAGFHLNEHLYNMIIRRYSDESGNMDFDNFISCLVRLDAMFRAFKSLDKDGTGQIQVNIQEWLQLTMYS
Description: (§1) The inhibitors were assayed against several enzymes using a BODIPY-casein substrate in the fluorescence-based assay procedure of V. F. Thompson, S. Saldana, J. Cong and D. E. Goll, Anal. Biochem. 2000, 279, 170.
A number of the compounds were assayed against m-calpain using a BODIPY-casein substrate in the fluorescence-based assay procedure of V. F. Thompson, S. Saldana, J. Cong and D. E. Goll, Anal. Biochem. 2000, 279, 170.

calpain I (μ calpain) = target: T2, calpain I (μ calpain) (Homo sapiens, UniProt P07384); assay: BODIPY-casein fluorescence-based enzyme assay, calpain I; format: biochemical; details: BODIPY-casein substrate
T2 sequence (P07384 1-714): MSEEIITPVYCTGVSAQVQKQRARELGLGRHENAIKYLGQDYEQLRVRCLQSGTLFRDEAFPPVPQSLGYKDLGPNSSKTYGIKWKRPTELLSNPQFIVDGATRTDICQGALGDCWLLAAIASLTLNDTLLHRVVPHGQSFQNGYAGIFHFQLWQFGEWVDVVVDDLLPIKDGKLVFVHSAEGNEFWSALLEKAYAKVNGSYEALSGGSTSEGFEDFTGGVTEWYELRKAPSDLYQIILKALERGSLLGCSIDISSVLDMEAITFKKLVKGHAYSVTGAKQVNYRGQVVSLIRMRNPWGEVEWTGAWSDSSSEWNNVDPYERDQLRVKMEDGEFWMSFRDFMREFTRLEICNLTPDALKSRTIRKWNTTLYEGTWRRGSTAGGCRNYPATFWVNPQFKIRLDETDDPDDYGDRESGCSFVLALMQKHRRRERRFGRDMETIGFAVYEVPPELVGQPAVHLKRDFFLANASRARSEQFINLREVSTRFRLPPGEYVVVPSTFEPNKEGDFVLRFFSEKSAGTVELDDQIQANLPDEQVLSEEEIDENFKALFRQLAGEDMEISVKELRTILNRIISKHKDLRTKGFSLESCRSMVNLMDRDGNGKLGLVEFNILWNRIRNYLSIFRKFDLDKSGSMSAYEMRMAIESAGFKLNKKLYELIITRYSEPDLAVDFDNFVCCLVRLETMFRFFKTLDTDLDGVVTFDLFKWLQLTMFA
T2 sequence (P04632 1-268 partner): T1 sequence (P04632 1-268 partner)

cathepsin B = cathepsin B (Homo sapiens, UniProt P07858); assay: BODIPY-casein fluorescence-based enzyme assay, cathepsin B; format: biochemical; details: BODIPY-casein substrate
α-chymotrypsin = α-chymotrypsin (Bos taurus, UniProt P00766); assay: BODIPY-casein fluorescence-based enzyme assay, α-chymotrypsin; format: biochemical; details: BODIPY-casein substrate
papain = target: T3, papain (Carica papaya, UniProt P00784); assay: BODIPY-casein fluorescence-based enzyme assay, papain; format: biochemical; details: BODIPY-casein substrate
T3 sequence (P00784 134-345): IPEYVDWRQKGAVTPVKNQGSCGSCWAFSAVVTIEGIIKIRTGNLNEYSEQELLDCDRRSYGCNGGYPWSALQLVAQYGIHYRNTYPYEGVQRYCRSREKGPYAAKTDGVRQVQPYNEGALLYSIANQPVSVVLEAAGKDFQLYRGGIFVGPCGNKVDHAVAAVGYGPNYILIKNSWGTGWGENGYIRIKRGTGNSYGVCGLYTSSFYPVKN
Description: as §1

[2] = 19-membered ring, Grubbs II (3 x 0.10 equiv), microwave, 10.0 mM
[3] = Table 3, read-out: IC50 against m-calpain
[4] = Table 2, read-out: IC50 calpain II (m calpain)

Molecule: COC(=O)[C@@H]1C/C=C/COc2ccc(cc2)C[C@H](NC(=O)OC(C)(C)C)C(=O)N[C@@H](C(C)C)C(=O)N1
- ring closure, isolated yield ([1]; 17-membered ring, Grubbs II, 10.0 mM): 12%

Molecule: (E/Z)-12S-tert-Butoxycarbonylamino-9S-isobutyl-8,11-dioxo-2-oxa-7,10-diazabicyclo[12.2.2]octadeca-1(17),4,14(18),15-tetraene-6S-carboxylic acid methyl ester
- ring closure, isolated yield ([1]; 16-membered ring, Grubbs II (3 x 0.10 equiv), microwave, 10.0 mM): 48%

Molecule: (E/Z)-15S-tert-Butoxycarbonylamino-12S-isobutyl-11,14-dioxo-2,7-dioxa-10,13-diaza-bicyclo[15.2.2]heneicosa-1(20),4,17(21),18-tetraene-9R-carboxylic acid methyl ester
- ring closure, isolated yield [1, 2]: 33%

Molecule: (E/Z)-(7S,10S,13S)-13-(4-Fluoro-benzenesulfonylamino)-10-isobutyl-9,12-dioxo-2-oxa-8,11-diaza-bicyclo[13.2.2]nonadeca-1(18),4,15(19),16-tetraene-7-carboxylic acid methyl ester
- ring closure, isolated yield ([1]; 17-membered ring, Grubbs II/Cy2BCl, 10.3 mM): 63%

Molecule: CC(C)[C@@H]1NC(=O)[C@@H](NS(=O)(=O)c2ccc(F)cc2)Cc2ccc(cc2)OCCC[C@@H](C=O)NC1=O [Compound 69, 4-Fluoro-N-((6S,9S,12S)-6-formyl-9-isopropyl-8,11-dioxo-2-oxa-7,10-diaza-bicyclo[12.2.2]octadeca-1(17),14(18),15-trien-12-yl)-benzenesulfonamide]
- IC50 (calpain II (m calpain); [3]): 3710 nM

Molecule: CC(C)C[C@@H]1NC(=O)[C@@H](NS(=O)(=O)c2ccc(F)cc2)Cc2ccc(cc2)OCCCC[C@@H](C=O)NC1=O [Compound 17, 4-Fluoro-N-((7S,10S,13S)-7-formyl-10-isobutyl-9,12-dioxo-2-oxa-8,1′-diaza-bicyclo[13.2.2]-nonadeca-1(18),15(19),16-trien-13-yl)-benzenesulfonamide]
- IC50 (calpain II (m calpain); [3]): 45 nM

Molecule: (E/Z)-(9R,12S,15S)-15-tert-Butoxycarbonylamino-12-isopropyl-11,14-dioxo-2-oxa-7-thia-10,13-diaza-bicyclo[15.2.2]henicosa-1(20),4,17(21),18-tetraene-9-carboxylic acid methyl ester
- ring closure, isolated yield ([1]; 19-membered ring, Grubbs II, 17.3 mM): 72%

Molecule: CC(C)C[C@@H]1NC(=O)[C@@H](NC(=O)OCc2ccccc2)Cc2ccc(cc2)OCCCC[C@@H](C(O)C#N)NC1=O (stereo partly drawn) [Compound 80, [7-(R,S)-(cyanohydroxymethyl)-10S-isobutyl-9,12-dioxo-2-oxa-8,11-diaza-bicyclo-[13.2.2]nonadeca-1(18),15(19),16-trien-13S-yl]carbamic acid benzyl ester]
- IC50 (calpain I (μ calpain)): 35000 nM
- IC50 (calpain II (m calpain); [4]): 8900 nM
- IC50 (cathepsin B): 2400 nM
- IC50 (α-chymotrypsin): > 50000 nM
- IC50 (papain): 12000 nM

Molecule: CC(C)C[C@@H]1NC(=O)[C@@H](NC(=O)OCc2ccccc2)Cc2ccc(cc2)OCCCC[C@@H](CNC2CC2)NC1=O [Compound 81, ((7S,10S,13S)-7-Cyclopropylaminomethyl-10-isobutyl-9,12-dioxo-2-oxa-8,11-diaza-bicyclo[13.2.2]nonadeca-1(18),15(19),16-trien-13-yl)-carbamic acid benzyl ester]
- IC50 (calpain II (m calpain); [3]): > 50000 nM

Molecule: CC(C)[C@@H]1NC(=O)[C@@H](NC(=O)OCc2ccccc2)Cc2ccc(cc2)OCCCC[C@@H](C=O)NC1=O [Compound 50]
- IC50 (calpain II (m calpain); [3]): 40 nM

Molecule: CC(C)[C@@H]1NC(=O)[C@@H](NS(C)(=O)=O)Cc2ccc(cc2)OCCCC[C@@H](C=O)NC1=O [Compound 56, N-((7S,10S,13S)-7-Formyl-10-isopropyl-9,12-dioxo-2-oxa-8,11-diaza-bicyclo[13.2.2]nonadeca-1(18),15(19),16-trien-13-yl)-methanesulfonamide]
- IC50 (calpain II (m calpain); [3]): 950 nM

Molecule: CC(C)[C@@H]1NC(=O)[C@@H](NC(=O)c2ccc[nH]2)Cc2ccc(cc2)OCCCC[C@@H](C=O)NC1=O [Compound 52, 1H-Pyrrole-2-carboxylic acid ((7S,10S,13S)-7-formyl-10-isopropyl-9,12-dioxo-2-oxa-8,11-diaza-bicyclo[13.2.2]nonadeca-1(18),15(19),16-trien-13-yl)-amide]
- IC50 (calpain II (m calpain); [3]): 690 nM

Molecule: (E/Z)-15S-tert-Butoxycarbonylamino-12S-isobutyl-11,14-dioxo-2-oxa-2-thia-10,13-diaza-bicyclo[15.2.2]heneicosa-1(20),4,17(21),18-tetraene-9R-carboxylic acid methyl ester
- ring closure, isolated yield [1, 2]: 40%

Molecule: CC(C)[C@@H]1NC(=O)[C@@H](NC(=O)OCc2ccccc2)Cc2ccc(cc2)OCCCCSC[C@@H](C=O)NC1=O [Compound 36]
- IC50 (calpain II (m calpain); [3]): 295 nM

Molecule: CC(C)C[C@@H]1NC(=O)[C@@H](NC(=O)OCc2ccccc2)Cc2ccc(cc2)OCCCC[C@@H](CN=[N+]=[N-])NC1=O [Compound 79, (7S-azidomethyl-10S-isobutyl-9,12-dixoxo-2-oxa-8,11-diazabicyclo-[13.2.2]nonadeca-1(18),15(19),16-trien-13S-yl)carbamic acid benzyl ester]
- IC50 (calpain I (μ calpain)): > 50000 nM
- IC50 (calpain II (m calpain); [4]): > 50000 nM
- IC50 (calpain II (m calpain); [3]): > 50000 nM
- IC50 (cathepsin B): > 50000 nM
- IC50 (α-chymotrypsin): > 50000 nM
- IC50 (papain): > 50000 nM

Molecule: (E/Z)-(9S,12S,15S)-15-tert-Butoxycarbonylamino-12-isopropyl-11,14-dioxo-2,7-dioxa-10,13-diaza-bicyclo[15.2.2]henicosa-1(20),4,17(21),18-tetraene-9-carboxylic acid methyl ester
- ring closure, isolated yield ([1]; 19-membered ring, Grubbs II, 12.6 mM): 23%

Molecule: CC(C)C[C@@H]1NC(=O)[C@@H](NS(=O)(=O)c2ccc(F)cc2)Cc2ccc(cc2)OCCCC[C@@H](CO)NC1=O [Compound 16, 4-Fluoro-N-((7S,10S,13S)-7-hydroxymethyl-10-isobutyl-9,12-dioxo-2-oxa-8,11-diaza-bicyclo-[13.2.2]nonadeca-1(18),15(19),16-trien-13-yl)-benzenesulfonamide]
- IC50 (calpain II (m calpain); [3]): 930 nM

Molecule: CC(C)[C@@H]1NC(=O)[C@@H](NS(=O)(=O)c2ccc(F)cc2)Cc2ccc(cc2)OCCCC[C@@H](C=O)NC1=O [Compound 54, 4-Fluoro-N-((7S,10S,135)-7-formyl-10-isopropyl-9,12-dioxo-2-oxa-8,11-diaza-bicyclo[13.2.2]nonadeca-1(18),15(19),16-trien-13-yl)-benzenesulfonamide]
- IC50 (calpain II (m calpain); [3]): 280 nM

Molecule: CC(C)[C@@H]1NC(=O)[C@@H](NS(=O)(=O)c2ccc(F)cc2)Cc2ccc(cc2)OCCCCSC[C@@H](C=O)NC1=O [Compound 58, 4-Fluoro-N-((9R,12S,15S)-9-formyl-12-isopropyl-11,14-dioxo-2-oxa-7-thia-10,13-diaza-bicyclo[15.2.2]henicosa-1(20),17(21),18-trien-15-yl)-benzenesulfonamide]
- IC50 (calpain II (m calpain); [3]): 2400 nM

Source: patent US8710178B2, “Macrocyclic cysteine protease inhibitors and compositions thereof” (Lincoln University, priority 2006, dated 2014)
